Measured values from ChEMBL document CHEMBL6134909 (Eur J Med Chem, 2025).
Active and inactive are the calls of the source. The calls are words filed in the database; no cut-off is given here.

Tests used:
Influenza A virus [1] = assay: (§1) Anti-viral activity against Influenza A virus H3N2 A/Hong Kong/11/1968 infected in human A549 cells assessed as decrease in viral replication at 1 uM incubated with compound and virus for 1 hr followed by inoculum removal and media replacement with compound measured after 48 hrs by extracting viral supernatant from cells and transferring supernatant to MDCK cells for measuring plaque formation; assay type: functional, organism-based; conditions: time 49.0 hrs
Influenza A virus [2] = assay: as §1, with “log reduction” for “decrease”, “titer” for “replication”; assay type: functional; conditions: time 49 hrs

Row | Structure (SMILES) | Activity (Influenza A virus [1]) | log10PFU/ml (Influenza A virus [2])
1 | Fc1cc(OCc2ccc(C(F)(F)F)cc2)ccc1-c1nc2ncccn2c1NC1CCCCC1 | Active | 1.5
2 | Oc1ccc(-c2nc3ncccn3c2NC2CCCCC2)c(F)c1 | Active | 1.5
3 | CN1CCN(c2ccc(-c3nc4ncc(Cl)cn4c3NC3CCCCC3)c(F)c2)CC1 | Active | 
4 | CCOC(=O)c1c(CSc2ccccc2)n(C)c2cc(Br)c(O)c(CN(C)C)c12 [UMIFENOVIR] | Active | 1.5
5 | COc1ccc(-c2nc3ncccn3c2NC2CCCCC2)cc1 | Active | 
6 | Cc1cc(C)n2c(NC3CCCCC3)c(-c3ccnc(Cl)c3)nc2n1 | Active | 
7 | Fc1ccc(-c2nc3ncccn3c2NC2CCCCC2)cc1F | Active | 
8 | Fc1ccc(-c2nc3ncccn3c2NC2CCCCC2)cc1N1CCOCC1 | Active | 1.5
9 | COc1cc(OC)cc(-c2nc3ncccn3c2NC2CCCCC2)c1 | Active | 1.5
10 | Clc1cnc2nc(-c3ccccc3)c(NC3CCCCC3)n2c1 | Active | 1.5
11 | COCOc1ccc(-c2nc3ncccn3c2NC2CCCCC2)c(F)c1 | Active | 1.5
